From patent US20160220609A1, “REGULATION OF STEROIDOGENIC ACTIVITY BY USING PURIFIED SHILAJIT” (NATREON, INC., priority 2013, published 2016)

Test system: steroidogenic genes in mouse skeletal muscle
Assay: Gene expression profiling (Affymetrix GeneChip) of skeletal muscle of mice supplemented for 12 weeks
Assay type: in vivo
Settings: 10 mg/kg body weight intragastric in DMSO/corn oil
Method: Procedure for Studies in Mice Using Shilajit and DBPs:
Three groups of adult mice (n=8) were intragastrically supplemented with purified Shilajit (PS), 3,8-(OH)2-DBP, or placebo for 12 weeks. At the end of week 12, skeletal muscle tissue was harvested for gene profiling. Some tissue was stored for histology and HPLC analysis.
The control group of mice received DMSO in corn oil while the PS group received 100 mg of purified Shilajit/kg body weight of mice, dissolved in water and the DBP group received 10 mg of 3,8-(OH)2-DBP/kg body weight of mice, dissolved in DMSO/corn oil.
At week 12, the following tissues were collected from mice: heart, lung, liver, brain, muscles, adipose tissue, skeletal muscle (vastus lateralis) and whole blood.
Gene Expression Profiling using GeneChip® Assay
Affymetrix GeneChip® technology (Affymetrix, Santa Clara, Calif.) was used for transcriptome profiling of skeletal muscle tissue. Gene chip assays were performed in accordance with the following references: Roy, S., Biswas, S., Khanna, S., Gordillo, G., Bergdall, V., Green, J., Marsh, C. B., Gould, L. J., Sen, C. K., “Characterization of a preclinical model of chronic ischemic wound,” Physiol. Genomics (2009) May 13; 37(3):211-24; Roy, S., Khanna, S., Rink, C., Biswas, S., Sen, C. […]

For `O=c1oc2cc(O)ccc2c2ccc(O)cc12` [3,8-(OH)2-DBP, 3,8-dihydroxy-dibenzo-a-pyrone], the “Effect on steroidogenic activity in mice” value was “did not show significant effect”.
